In US20260109714A1, “PYRIMIDINE-FUSED RING COMPOUND, AND PREPARATION METHOD THEREFOR AND USE THEREOF” (GENFLEET THERAPEUTICS (SHANGHAI) INC., priority 2022, published 2026):
pIC50: −log10 of the molar value.

Tests used:
AGS p-ERK = assay: Cell assay for p-ERK (HTRF, Advance ERK phospho-T202/Y204 kit); assay type: cell-based, human; details: AGS cells (KRAS G12D), 3 hrs with compound, inhibition of p-ERK level
Protocol: AGS was purchased from ATCC, Article No.: CRL-1739; F12K was purchased from Gibco, Article No.: 21127-022; FBS was purchased from Gibco, Article No.: 10099-141C; the trypsin (containing EDTA) was purchased from Gibco, Article No.: 25200-072; DMSO was purchased from VWRAMRESCO, Article No.: 0231-500ML; the 96-well cell culture plate was purchased from Corning, Article No.: 3599; the white-bottom opaque 96-well plate was purchased from Cisbio, Article No.: 66PL96025; Advance ERK phospho-T202/Y204 kit was purchased from Cisbio, Article No.: 64AERPEH; the cell counter was purchased from CHEMOMETEC, model: NC-200; the microplate reader was purchased from PerkinElmer, model: Envison.
AGS, an endogenous human gastric adenocarcinoma cell line with KRAS^G12D mutation, was cultured in F12K+10% FBS medium. On the first day of the experiment, cells in logarithmic growth period were digested with trypsin (containing EDTA), collected and counted, and about 20,000 cells/well were inoculated in a 96-well cell culture plate and cultured overnight in an incubator with 5% CO2. 1000× compound stock solutions with gradient concentrations of 3.16 times were prepared with DMSO, and 200-fold diluted to 5× compound stock solutions with the above culture medium. The 5× compound stock solution was added to each cell culture well on the second day after cell inoculation, to give a final concentration of 1× and DMSO content of 0.1%. DMSO was used as experimental control. After adding the compound, the cells were continuously cultured for 3 hrs. Then, the culture medium in the well was removed, and 50 μl/well of cell lysis buffer (from Advanced ERK phospho-T202/Y204 kit, the same hereinafter) was added, and mixed uniformly. The cells were cultured for 30 min. Then 16 μl of the mixture was transferred to a white-bottom opaque 96-well plate, and 16 μl of the cell lysis buffer was added to an additional well and used as a blank. After that, 4 μl of p-ERK HTRF antibody mixed solution (from Advanced ERK Phos Pho-T202/Y204 Kit) was added to each well. After incubation for 4 hrs, the fluorescence value (RLU) of HTRF was read on a microplate reader. The inhibition rate of the compound on p-ERK level was calculated by the formula IR (%)=(RLU of control−RLU of compound)/(RLU of control−RLU of blank)×100%. The compound concentration and the corresponding inhibition rate on p-ERK level in the cells were fitted by using Prism 8 four-parameter method, and the IC50 value was calculated.

[1] = tested on: AGS human gastric cancer cell line with KRAS G12D mutation; assay: Cell proliferation inhibition experiment, 3D CellTiter-Glo, AGS; assay type: cell-based; details: AGS cells, 3D spheroid, 5 days
Description: (§1) AsPC-1 was purchased from ATCC, Article No.: CRL-1682; AGS was purchased from ATCC, Article No.: CRL-1739; RPMI1640 was purchased from Gibco, Article No.: 11875-093 2235123; F12K was purchased from Gibco, Article No.: 21127-022; FBS was purchased from Gibco, Article No.: 10099-141C; the trypsin (containing EDTA) was purchased from Gibco, Article No.: 25200-072; CellTiter Glo-3D was purchased from Progema, Article No.: G9683; the 384-well spheroid plate was purchased from Corning, Article No.: 3830; the white-bottom opaque 384-well plate was purchased from Corning, Article No.: 3570; the cell counter was purchased from CHEMOMETEC, model: NC-200; the microplate reader was purchased from PerkinElmer, model: Envison;
(§2) AsPC-1, an endogenous human pancreatic cancer cell AsPC-1 with KRAS^G12D mutation, was cultured in RPMI-1640 medium containing 10% FBS. AGS, a human gastric cancer cell line with KRAS^G12D mutation, was cultured in F-12K medium containing 10% FBS. Cells in logarithmic growth period were digested with trypsin (containing EDTA), collected and counted. 800 AsPC-1 cells/well or 400 […] were inoculated in a 384-well spheroid plate, and cultured overnight in an incubator with 5% CO2 to establish a 3D cell model. 1000× compound stock solutions with gradient concentrations of 3.16 times were prepared with DMSO, and 100-fold diluted to 10× compound stock solutions with the culture medium. The 10× compound stock solution was added to each cell culture well on the second day after cell inoculation, to give a final concentration of 1× and DMSO content of 0.1%. DMSO was used as the control, and the culture medium was used as the blank. After the compound was added, the cells were cultured for 5 days. 30 μl CellTiter-Glo working solution was added to each well, and mixed uniformly. The cells were incubated for 30 min, and allowed to stand at room temperature for 30 min. 40 μl of the mixture was transferred to a white-bottom opaque 384-well plate, and the luminescence was read on a microplate reader. The inhibition rate on cell proliferation was calculated by a formula: IR (%)=(RLU of control−RLU of compound)/(RLU of control−RLU of blank)×100%. The gradient concentrations of the compound and the corresponding inhibition rates were fitted by using XLFit four-parameter method, and the IC50 value was calculated. […] The results of some exemplary compounds are shown in Table 2 below (—means not tested).

[2] = tested on: AsPC-1 human pancreatic cancer cell with KRAS G12D mutation; assay: Cell proliferation inhibition experiment, 3D CellTiter-Glo, AsPC-1; assay type: cell-based; details: AsPC-1 cells, 3D spheroid, 5 days
Description: as §1, §2

Row | pIC50 (AGS p-ERK) | pIC50 [1] | pIC50 [2] | Compound | pIC50 (AGS p-ERK; Homo sapiens) | pIC50 ([1]; Homo sapiens, 120 h) | pIC50 ([2]; Homo sapiens, ASPC1, 120 h)
1 | 7.96 | 7.57 | 7.28 | C#Cc1cccc2cccc(-c3nc4c5c(nc(OC[C@@]67CCCN6CCC7=C)nc5c3F)N3C[C@H]5CC[C@H](N5)[C@H]3[C@H](C)O4)c12 (single isomer, unassigned) [Z702] |  |  | 
2 |  |  |  | C#Cc1cccc2cc(N)cc(-c3nc4c5c(nc(OC[C@@]67CCCN6CCC7=C(F)F)nc5c3F)N3C[C@H]5CC[C@H](N5)[C@H]3[C@H](C)O4)c12 (single isomer, unassigned) [Z960] | 9.60 | 8.40 | 8.80
3 | 7.30 | 7.14 | 6.69 | C#Cc1cccc2cccc(-c3nc4c5c(nc(OC[C@@]67CCCN6C[C@H](F)C7)nc5c3F)N3C[C@H]5CC[C@H](N5)[C@H]3C(CC)O4)c12 (stereo partly drawn) [Z387, (5S,5aS,6S,9R)-5-ethyl-2-(8-alkynylnaphthalen-1-yl)-1-fluoro-12-(((2R,7aS)-2-fluorotetrahydro-1H-pyrrolizin-7a(5H)-yl)methoxy)-5a,6,7,8,9,10-hexahydro-5H-4-oxy-3,10a,11,13,14-pentaaza-6,9-methanonaphtho[1,8-ab]heptene] |  |  | 
4 |  |  |  | C=C1CN2CCCC2(COc2nc3c4c(nc(-c5cccc6cccc(Cl)c56)c(F)c4n2)OC(CC)[C@@H]2[C@@H]4CC[C@H](CN32)N4)C1 (stereo partly drawn) [Z596, (5S,5aS,6S,9R)-2-(8-chloronaphthalen-1-yl)-5-ethyl-1-fluoro-12-((2-methylenetetrahydro-1H-pyrrolizin-7a(5H)-yl)methoxy)-5a,6,7,8,9,10-hexahydro-5H-4-oxy-3,10a,11,13,14-pentaaza-6,9-methanonaphtho[1,8-ab]heptene] |  | 6.57 | 6.39
5 | 8.11 | 7.71 | 7.49 | C#Cc1c(F)ccc2cccc(-c3nc4c5c(nc(OC[C@@]67CCCN6CCC7=C)nc5c3F)N3C[C@H]5CC[C@H](N5)[C@H]3[C@H](C)O4)c12 [Z638, (5S,5aS,6S,9R)-2-(8-ethynyl-7-fluoronaphthalen-1-yl)-1-fluoro-5-methyl-12-(((S)-1-methylenetetrahydro-1H-pyrrolizin-7a(5H)-yl)methoxy)-5a,6,7,8,9,10-hexahydro-5H-4-oxa-3,10a,11,13,14-pentaaza-6,9-methanonaphtho[1,8-ab]heptene] |  |  | 
6 | 7.48 | 6.95 | 7.03 | C#Cc1c(F)ccc2cccc(-c3nc4c5c(nc(OC[C@]67CCCN6CCC7=C)nc5c3F)N3C[C@H]5CC[C@H](N5)[C@H]3[C@H](C)O4)c12 [Z639, (5S,5aS,6S,9R)-2-(8-ethynyl-7-fluoronaphthalen-1-yl)-1-fluoro-5-methyl-12-(((R)-1-methylenetetrahydro-1H-pyrrolizin-7a(5H)-yl)methoxy)-5a,6,7,8,9,10-hexahydro-5H-4-oxa-3,10a,11,13,14-pentaaza-6,9-methanonaphtho[1,8-ab]heptene] |  |  | 
7 | 8.18 | 7.71 | 7.76 | C#Cc1c(F)ccc2cccc(-c3nc4c5c(nc(OC[C@]67C[C@@H](F)CN6CCC7=C)nc5c3F)N3C[C@H]5CC[C@H](N5)[C@H]3[C@H](C)O4)c12 [Z689, (5S,5aS,6S,9R)-2-(8-ethynyl-7-fluoronaphthalen-1-yl)-1-fluoro-12-(((6R,7aR)-6-fluoro-1-methylenetetrahydro-1H-pyrrolizin-7a(5H)-yl)methoxy)-5-methyl-5a,6,7,8,9,10-hexahydro-5H-4-oxa-3,10a,11,13,14-pentaaza-6,9-methanonaphtho[1,8-ab]heptene] |  |  | 
8 |  |  |  | C#Cc1c(F)ccc2cccc(-c3nc4c5c(nc(OC[C@]67CCCN6CCC7=C)nc5c3F)N3C[C@H]5CC[C@H](N5)[C@H]3[C@@H](C(F)F)O4)c12 [Z736, (5S,5aS,6S,9R)-5-(difluoromethyl)-2-(8-ethynyl-7-fluoronaphthalen-1-yl)-1-fluoro-12-(((R)-1-methylenetetrahydro-1H-pyrrolizin-7a(5H)-yl)methoxy)-5a,6,7,8,9,10-hexahydro-5H-4-oxa-3,10a,11,13,14-pentaaza-6,9-methanonaphtho[1,8-ab]heptene] |  | 6.41 | 6.59
9 |  |  |  | C#Cc1c(F)ccc2cccc(-c3nc4c5c(nc(OC[C@]67CCCN6CCC7=C)nc5c3F)N3C[C@H]5CC[C@H](N5)[C@H]3C(CF)O4)c12 (stereo partly drawn) [Z746, (5aS,6S,9R)-2-(8-ethynyl-7-fluoronaphthalen-1-yl)-1-fluoro-5-(fluoromethyl)-12-(((R)-1-methylenetetrahydro-1H-pyrrolizin-7a(5H)-yl)methoxy)-5a,6,7,8,9,10-hexahydro-5H-4-oxa-3,10a,11,13,14-pentaaza-6,9-methanonaphtho[1,8-ab]heptene] | 7.77 |  | 
10 |  |  |  | C#Cc1cccc2cc(N)cc(-c3nc4c5c(nc(OCC67CCCN6CC(=C(F)F)C7)nc5c3F)N3C[C@H]5CC[C@H](N5)[C@H]3[C@H](C)O4)c12 (stereo partly drawn) [Z747] | 9.43 |  | 
11 |  |  |  | [2H]C([2H])([2H])[C@@H]1Oc2nc(-c3cc(N)cc(Cl)c3C(F)(F)F)c(F)c3nc(OC[C@]45CCCN4CCC5=C(F)F)nc(c23)N2C[C@H]3CC[C@H](N3)[C@@H]12 [Z1072, 3-chloro-5-((5S,5aS,6S,9R)-12-(((R)-1-(difluoromethylene)tetrahydro-1H-pyrrolizin-7a(5H)-yl)methoxy)-1-fluoro-5-(methyl-d3)-5a,6,7,8,9,10-hexahydro-5H-4-oxo-3,10a,11,13,14-pentaaza-6,9-methanonaphtho[1,8-ab]hepten-2-yl)-4-(trifluoromethyl) aniline] |  | 9.30 | 8.65

Row | Compound | pIC50 (AGS p-ERK) | pIC50 [1] | pIC50 [2] | pIC50 (AGS p-ERK; Homo sapiens) | pIC50 ([1]; Homo sapiens, 120 h) | pIC50 ([2]; Homo sapiens, ASPC1, 120 h)
12 | 6-((5S,5aS,6S,9R)-12-(((R)-1-(difluoromethylene)tetrahydro-1H-pyrrolizin-7a(5H)-yl)methoxy)-1-fluoro-5-(methyl-d3)-5a,6,7,8,9,10-hexahydro-5H-4-oxa-3,10a,11,13,14-pentaaza-6,9-methanonaphtho[1,8-ab]hepten-2-yl)-4-methyl-5-(trifluoromethyl)pyridine-2-amine [Z1295] | 7.86 |  |  |  |  | 
13 | C#Cc1cccc2cc(N)c(F)c(-c3nc4c5c(nc(OCC6(CN7CCOCC7)CC6)nc5c3F)N3C[C@H]5CC[C@H](N5)[C@H]3[C@H](C)O4)c12 [Z707, 5-ethynyl-3-fluoro-4-((5S,5aS,6S,9R)-1-fluoro-5-methyl-12-((1-(morpholinemethyl)cyclopropyl)methoxy)-5a,6,7,8,9,10-hexahydro-5H-4-oxa-3,10a,11,13,14-pentaaza-6,9-methanonaphtho[1,8-ab]hepten-2-yl)naphthalen-2-amine] | 9.02 | 8.13 | 8.28 |  |  | 
